Source: patent publication EP3770254A1, “LIQUID P[…] TRANSGLUTAMINASE” (AJINOMOTO CO., INC., priority 2018, dated 2019)
Where a name gives a salt, the structure may show the parent alone.

Molecular target: T1, transglutaminase (Streptomyces mobaraensis, UniProt P81453)
Assay: Experimental Example 1: accelerated test by high temperature storage, transglutaminase activity by hydroxamate method
Assay type: physicochemical, microorganism
Conditions: conclusion of Experimental Example 1; additive 10 wt%, 44°C 24 hr
Procedure: The enzyme activity of transglutaminase can be measured and calculated by, for example, the hydroxamate method. That is, benzyloxycarbonyl-L-glutaminyl glycine is reacted with hydroxylamine as a substrate to form an iron complex of hydroxamic acid formed in the aforementioned reaction in the presence of trichloroacetic acid, the absorbance at 525 nm is measured, and the amount of hydroxamic acid produced is determined from the calibration curve, whereby the enzyme activity can be calculated.
The stability of transglutaminase in each liquid preparation of the above-mentioned Examples 1 - 5 and Comparative Example 1 was evaluated by an accelerated test by high temperature storage as follows.
Respective liquid preparations of the above-mentioned Examples 1 - 5 and Comparative Example 1 were stored at 4°C and 44°C for 24 hr, and the transglutaminase activity in the liquid preparation was measured by the above-mentioned hydroxamate method.
A liquid preparation obtained by dissolving only transglutaminase in a phosphate buffer was used as a control and treated in the same manner.

T1 sequence (P81453 77-407): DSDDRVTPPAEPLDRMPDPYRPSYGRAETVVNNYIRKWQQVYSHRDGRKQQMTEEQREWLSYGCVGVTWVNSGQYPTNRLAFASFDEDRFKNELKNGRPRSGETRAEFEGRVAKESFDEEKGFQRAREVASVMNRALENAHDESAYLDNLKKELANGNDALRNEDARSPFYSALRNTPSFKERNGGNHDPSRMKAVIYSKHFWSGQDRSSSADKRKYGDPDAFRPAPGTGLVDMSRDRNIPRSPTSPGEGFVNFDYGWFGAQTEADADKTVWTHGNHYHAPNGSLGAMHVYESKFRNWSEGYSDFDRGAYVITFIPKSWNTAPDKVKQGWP

Row | Structure (SMILES) | transglutaminase stabilizing effect in a liquid preparation
1 | NCC(=O)O [glycine, 2-aminoacetic acid] | has a transglutaminase stabilizing effect
2 | Cl.NCCCC[C@H](N)C(=O)O [lysine hydrochloride, reference compound] | not found
3 | O=C(O)C1CCCN1 (stereo not drawn) [proline, pyrrolidine-2-carboxylic acid] | has a transglutaminase stabilizing effect
4 | NC(CO)C(=O)O (stereo not drawn) [serine, 2-amino-3-hydroxypropionic acid] | has a transglutaminase stabilizing effect
5 | N[C@@H](CC(=O)[O-])C(=O)[O-].[Na+].[Na+] [sodium aspartate] | has a transglutaminase stabilizing effect
6 | N[C@@H](CCC(=O)[O-])C(=O)[O-].[Na+].[Na+] [sodium glutamate] | has a transglutaminase stabilizing effect

Molecular target: T1, transglutaminase
Assay: not given
Conditions: conclusion of Experimental Example 4; organic acid salt 10 wt%, 44°C 24 hr

Row | Structure (SMILES) | stabilization of transglutaminase
7 | CC(=O)O [sodium acetate] | can also stabilize transglutaminase
8 | O=C(O)CC(O)(CC(=O)O)C(=O)O [sodium citrate] | can also stabilize transglutaminase
9 | O=C([O-])[C@H](O)[C@@H](O)[C@H](O)[C@H](O)CO.[Na+] [sodium gluconate] | can also stabilize transglutaminase
